Results taken from PubChem BioAssay (NCI).
“And” between values parts separate entries of the source, which are not always exact repeats. Equal values may be shown once.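 How tested: cells in 96-well plates exposed to compound for 48 hours at five concentrations. Here, GI50 denotes the concentration required for 50% inhibition of growth. Definition used: TGI = concentration required for complete inhibition of growth.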

Legend:
Assay in all cases: growth of human tumour cells (NCI), 48 h
A549 NSCLC = tested on: A549 NSCLC
ACHN renal = tested on: ACHN renal
COLO 205 colon = tested on: COLO 205 colon
HOP-92 NSCLC = tested on: HOP-92 NSCLC
K-562 leukemia = tested on: K-562 leukemia
NCI-H522 lung = tested on: NCI-H522 lung
OVCAR-4 ovarian = tested on: OVCAR-4 ovarian
PC-3 prostate = tested on: PC-3 prostate
SF-295 CNS = tested on: SF-295 CNS
SK-MEL-5 melanoma = tested on: SK-MEL-5 melanoma

Row | SMILES | TGI (A549 NSCLC) | TGI (ACHN renal) [µM] | TGI (COLO 205 colon) [µM] | TGI (HOP-92 NSCLC) | TGI (K-562 leukemia) [µM] | TGI (NCI-H522 lung) | TGI (OVCAR-4 ovarian) [µM] | TGI (PC-3 prostate) [µM] | TGI (SF-295 CNS) | TGI (SK-MEL-5 melanoma) | GI50 (A549 NSCLC) [µM] | GI50 (COLO 205 colon) [µM] | GI50 (HOP-92 NSCLC) [µM] | GI50 (K-562 leukemia) [µM] | GI50 (NCI-H522 lung) [µM] | GI50 (OVCAR-4 ovarian) [µM] | GI50 (SF-295 CNS) [µM] | GI50 (SK-MEL-5 melanoma) [µM]
1 | COC(=O)NC(Cc1ccccc1)NC(C)=O (stereo unspecified) | > 100 µM | > 100 | > 100 | > 100 µM | > 100 | > 100 µM | > 100 | > 100 | > 100 µM | > 100 µM | – | – | – | – | – | – | – | –
2 | O=[N+]([O-])c1ccc(N2N=C(c3ccc4ccccc4c3O)CC2c2ccc(Cl)cc2)c([N+](=O)[O-])c1 (stereo unspecified) | > 100 µM | > 100 | > 100 | > 100 µM | 52 | 62.4 µM | > 100 | > 100 | > 100 µM | 63.3 µM | – | – | – | – | – | – | – | –
3 | COc1cc(CCN(C)C)cc(OC)c1OC | > 100 µM | > 100 | > 100 | > 100 µM | > 100 | > 100 µM | > 100 | > 100 | > 100 µM | > 100 µM | – | – | – | – | – | – | – | –
4 | CCN(CC)CCOC(=O)Cc1cccc2c(=O)cc(-c3ccccc3)oc12 | 62.5 µM and > 209 µM | 62.5 | – | 42.6 µM and 82.5 µM | – | 62.5 µM and > 154 µM | 62.5 | 62.5 | 62.5 µM and > 141 µM | 62.5 µM and > 186 µM | 57.4 | 439 | 8.02 | 406 | 72.8 | 18.3 | 19.2 | 81.5
5 | O=[N+]([O-])c1cccc(Cl)c1Oc1ccc(S(=O)(=O)/N=C(\NO)Nc2ccc(Cl)cc2)cc1 | 28.7 µM | 27.5 | 31 | 17.1 µM | 33.3 | 20.2 µM | 26.3 | 24.2 | 34.4 µM | 24.7 µM | – | – | – | – | – | – | – | –
6 | CCCN(CCC)C1CCc2c(ccc3cc[nH]c23)C1 (stereo unspecified) | > 100 µM | > 100 | > 100 | > 100 µM | > 100 | > 100 µM | > 100 | > 100 | > 100 µM | 41.4 µM | – | – | – | – | – | – | – | –
7 | N#CC[N+]1(Cc2ccccn2)CCCC1 | > 100 µM | > 100 | > 100 | > 100 µM | > 100 | > 100 µM | > 100 | > 100 | > 100 µM | > 100 µM | – | – | – | – | – | – | – | –
8 | O=[N+]([O-])c1ccc(O)c(/C=N/c2nc(-c3ccccc3)cs2)c1 | > 100 µM | > 100 | 56.7 | 75.2 µM | 41.9 | 38.1 µM | > 100 | > 100 | > 95.9 µM | 34.4 µM | – | – | – | – | – | – | – | –
9 | CC12ON(P(=O)(c3ccccc3)c3ccccc3)C(C)(c3ccccc31)c1ccccc12 | > 100 µM | > 100 | > 100 | > 100 µM | > 100 | > 100 µM | > 100 | > 100 | > 100 µM | > 100 µM | – | – | – | – | – | – | – | –
10 | COc1c(C)c(C/C=C(\C)CC/C=C(\C)CC/C=C(\C)CCC=C(C)C)c(OC)c2ccccc12 | > 100 µM | > 100 | > 100 | > 100 µM | > 100 | > 100 µM | > 100 | > 100 | > 100 µM | > 100 µM | – | – | – | – | – | – | – | –
11 | O=C(c1ccc(O)c([N+](=O)[O-])c1)c1ccc(O)c([N+](=O)[O-])c1 | > 100 µM | > 100 | > 100 | > 100 µM | > 100 | > 100 µM | > 100 | > 100 | > 100 µM | > 100 µM | – | – | – | – | – | – | – | –
12 | COc1ccc2c(c1)CCN1CCCc3ccccc3C21 (stereo unspecified) | > 100 µM | > 100 | > 100 | > 100 µM | > 100 | > 100 µM | > 100 | > 100 | > 100 µM | > 100 µM | – | – | – | – | – | – | – | –
13 | COC12C=CC(C=C1C#N)CC2 (stereo unspecified) (tested in a mixture with another compound) | > 100 µM | > 100 | > 100 | > 100 µM | > 100 | > 100 µM | > 100 | > 100 | > 100 µM | > 100 µM | – | – | – | – | – | – | – | –
